Where two headings read alike, the source gives them in different places.

The test system of this test is GenL. It counts as biochemical, Micromonospora echinospora.

For the compound `CN[C@@H]1[C@@H](O)[C@@H](O[C@@H]2[C@@H](O)[C@H](O[C@H]3O[C@H](CN)CC[C@H]3N)[C@@H](N)C[C@H]2N)OC[C@]1(C)O` [C1a], the Km turned out to be 347 ± 86 µM.
With `CN[C@@H]1[C@@H](O)[C@@H](O[C@@H]2[C@@H](O)[C@H](O[C@H]3O[C@H]([C@@H](C)N)CC[C@H]3N)[C@@H](N)C[C@H]2N)OC[C@]1(C)O` [C2], under “SAM as methyl donor, integrated Michaelis-Menten fit”, the Km was 77.8 ± 8 µM.

For the origin of these results see article PMC5819394 (Proceedings of the National Academy of Sciences of the …, 2018).
